Measurements as given in PubChem BioAssay (NCI).
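Cultured in 96-well plates, cells were exposed to test compound for 48 hours across five concentrations. TGI: concentration producing complete growth inhibition.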

Columns and labels:
Assay in all cases: NCI anticancer screen, dose series, 48 h
[1] = tested on: 786-0 renal
[2] = tested on: A549 NSCLC
[3] = tested on: ACHN renal
[4] = tested on: CAKI-1 renal
[5] = tested on: CCRF-CEM leukemia
[6] = tested on: COLO 205 colon
[7] = tested on: DLD-1 colon
[8] = tested on: DMS 114 small cell lung
[9] = tested on: DMS 273 small cell lung
[10] = tested on: EKVX NSCLC
[11] = tested on: HCC-2998 colon
[12] = tested on: HCT-116 colon
[13] = tested on: HCT-15 colon
[14] = tested on: HL-60(TB) leukemia
[15] = tested on: HOP-62 NSCLC
[16] = tested on: HOP-92 NSCLC
[17] = tested on: HT29 colon
[18] = tested on: IGROV1 ovarian
[19] = tested on: K-562 leukemia
[20] = tested on: KM12 colon
[21] = tested on: KM20L2 colon
[22] = tested on: LOX IMVI melanoma
[23] = tested on: LXFL 529 NSCLC
[24] = tested on: M14 melanoma
[25] = tested on: MALME-3M melanoma
[26] = tested on: MOLT-4 leukemia
[27] = tested on: NCI-H226 lung
[28] = tested on: NCI-H460 lung
[29] = tested on: OVCAR-3 ovarian
[30] = tested on: OVCAR-4 ovarian
[31] = tested on: OVCAR-5 ovarian
[32] = tested on: OVCAR-8 ovarian
[33] = tested on: RPMI-8226 leukemia
[34] = tested on: RXF 393 renal
[35] = tested on: RXF-631 renal
[36] = tested on: SF-295 CNS
[37] = tested on: SK-MEL-2 melanoma
[38] = tested on: SK-MEL-28 melanoma
[39] = tested on: SK-MEL-5 melanoma
[40] = tested on: SK-OV-3 ovarian
[41] = tested on: SN12C renal
[42] = tested on: SNB-19 CNS
[43] = tested on: SNB-75 CNS
[44] = tested on: SNB-78 CNS
[45] = tested on: SW-620 colon
[46] = tested on: TK-10 renal
[47] = tested on: U251 CNS
[48] = tested on: UACC-257 melanoma
[49] = tested on: UACC-62 melanoma
[50] = tested on: UO-31 renal
[51] = tested on: XF 498 CNS
[52] = tested on: M19-MEL melanoma
[53] = tested on: NCI-H23 lung
[54] = tested on: NCI-H522 lung
[55] = tested on: SF-268 CNS
[56] = tested on: SF-539 CNS
[57] = tested on: SR leukemia

CCOC(=O)C(C(C)=O)C1CC=CC1 (stereo unspecified)
TGI [1]: > 100 µM
TGI [2]: > 100 µM
TGI [3]: > 100 µM
TGI [4]: > 100 µM
TGI [5]: > 100 µM
TGI [6]: > 100 µM
TGI [7]: > 100 µM
TGI [8]: > 100 µM
TGI [9]: > 100 µM
TGI [10]: > 100 µM
TGI [11]: > 100 µM
TGI [12]: > 100 µM
TGI [13]: > 100 µM
TGI [14]: > 100 µM
TGI [15]: > 100 µM
TGI [16]: > 100 µM
TGI [17]: > 100 µM
TGI [18]: > 100 µM
TGI [19]: > 100 µM
TGI [20]: > 100 µM
TGI [21]: > 100 µM
TGI [22]: > 100 µM
TGI [23]: > 100 µM
TGI [24]: > 100 µM
TGI [25]: > 100 µM
TGI [26]: > 100 µM
TGI [27]: > 100 µM
TGI [28]: > 100 µM
TGI [29]: > 100 µM
TGI [30]: > 100 µM
TGI [31]: > 100 µM
TGI [32]: > 100 µM
TGI [33]: > 100 µM
TGI [34]: > 100 µM
TGI [35]: > 100 µM
TGI [36]: > 100 µM
TGI [37]: > 100 µM
TGI [38]: > 100 µM
TGI [39]: > 100 µM
TGI [40]: > 100 µM
TGI [41]: > 100 µM
TGI [42]: > 100 µM
TGI [43]: > 100 µM
TGI [44]: > 100 µM
TGI [45]: > 100 µM
TGI [46]: > 100 µM
TGI [47]: > 100 µM
TGI [48]: > 100 µM
TGI [49]: > 100 µM
TGI [50]: > 100 µM
TGI [51]: > 100 µM

COC(=O)C1=C(C(=O)OC)C2(C)OC1C(=O)C21CC1 (stereo unspecified)
TGI [1]: > 100 µM
TGI [2]: > 100 µM
TGI [3]: 41.6 µM
TGI [4]: 44.1 µM
TGI [5]: 39.6 µM
TGI [6]: 56.5 µM
TGI [7]: 51.1 µM
TGI [8]: 42.9 µM
TGI [9]: 40.2 µM
TGI [10]: > 100 µM
TGI [11]: 53 µM
TGI [12]: 43.4 µM
TGI [13]: 44.6 µM
TGI [14]: 39.6 µM
TGI [15]: > 100 µM
TGI [17]: 37 µM
TGI [18]: 57.7 µM
TGI [19]: 69.1 µM
TGI [20]: > 100 µM
TGI [21]: 65.7 µM
TGI [22]: 45.3 µM
TGI [23]: 35.1 µM
TGI [24]: 34.9 µM
TGI [52]: > 100 µM
TGI [25]: 70.6 µM
TGI [26]: 44.9 µM
TGI [27]: > 100 µM
TGI [53]: 51.2 µM
TGI [28]: 63.5 µM
TGI [54]: 25.9 µM
TGI [29]: 55.8 µM
TGI [30]: 25.1 µM
TGI [31]: > 100 µM
TGI [32]: 52.8 µM
TGI [33]: 42.7 µM
TGI [34]: 32.3 µM
TGI [35]: 36.1 µM
TGI [55]: > 100 µM
TGI [36]: > 100 µM
TGI [56]: 41.5 µM
TGI [37]: > 100 µM
TGI [39]: > 100 µM
TGI [40]: > 100 µM
TGI [41]: 43.4 µM
TGI [42]: > 100 µM
TGI [43]: 99.7 µM
TGI [57]: 44.6 µM
TGI [45]: 38.6 µM
TGI [47]: > 100 µM
TGI [48]: > 100 µM
TGI [50]: > 100 µM
TGI [51]: 26.5 µM

NC(N)=N/N=C(/CCN1CCCC1)CC(c1ccccc1)c1c(O)c2ccccc2oc1=O (stereo unspecified)
TGI [1]: > 100 µM
TGI [2]: > 100 µM
TGI [3]: > 100 µM
TGI [4]: > 100 µM
TGI [6]: > 100 µM
TGI [7]: > 100 µM
TGI [8]: > 100 µM
TGI [10]: > 100 µM
TGI [11]: > 100 µM
TGI [12]: > 100 µM
TGI [15]: > 100 µM
TGI [16]: > 100 µM
TGI [17]: > 100 µM
TGI [18]: > 100 µM
TGI [19]: > 100 µM
TGI [21]: > 100 µM
TGI [22]: > 100 µM
TGI [23]: > 100 µM
TGI [24]: > 100 µM
TGI [52]: > 100 µM
TGI [25]: > 100 µM
TGI [27]: > 100 µM
TGI [53]: > 100 µM
TGI [54]: > 100 µM
TGI [29]: > 100 µM
TGI [30]: > 100 µM
TGI [33]: > 100 µM
TGI [34]: > 100 µM
TGI [35]: > 100 µM
TGI [55]: > 100 µM
TGI [36]: > 100 µM
TGI [56]: > 100 µM
TGI [37]: > 100 µM
TGI [38]: > 100 µM
TGI [40]: > 100 µM
TGI [41]: > 100 µM
TGI [42]: > 100 µM
TGI [43]: > 100 µM
TGI [45]: > 100 µM
TGI [46]: > 100 µM
TGI [48]: > 100 µM
TGI [49]: > 100 µM
TGI [51]: > 100 µM
